We go through 5 compounds from publication PMC12419465, “Photoresponsive molecular tweezers modulate Taspase 1 activity” (RSC Chemical Biology, 2025).

Data set [1] can be described thus: Photoisomerization: photostationary states by 1H NMR, switching cycles by UV-vis. The conditions noted are these: for PSS E→Z, photostationary state: UV 365 nm; for PSS Z→E, photostationary state: green light 520 nm. The data set is classed as physicochemical. The method, then:
Tweezer constructs were synthesized as an E/Z mixture, with a strong preference for the thermodynamically stable E isomer. For photoisomerization, UV-vis spectra of TWAAP and TWAB (50 μM in water) were recorded in their initial state. The constructs were then isomerized to the Z isomer with UV light (λ = 365 nm, 1 min) and back to the E isomer with green light (λ = 520 nm, 5 min). Two light sources were used: UV LED HighPower-LED with 3 W of λ = 365 nm (LED Engin Inc., San Jose, California, US) and a LSC-G HighPower-LED with 3 W of λ = 520 nm (Cree Inc., Durham, North Carolina, US). UV-vis spectroscopy was routinely employed to analyze the tweezer constructs, serving as the method of choice to monitor configurational integrity after multiple switching cycles. More than 10 switching cycles were performed without any loss of configurational integrity. The UV-vis spectra were recorded with a JASCO V-650 double-beam spectrophotometer (JASCO).
The photophysical properties of AAP tweezers TWAAP0-4 as well as those of AZO tweezers TWAB1-2 were consistent with previous reports on these photoswitches. […] The two isomers are easily distinguished by the significant difference in their absorption bands (Fig. 2 and Fig. S4a, b). […] Irradiation with green light further increases the concentration of the E isomer, as confirmed by both UV/vis and NMR spectra. The switching process can be repeated for over 10 cycles without loss of configurational integrity or photodegradation of the tweezer. […] (Fig. 2 and Table S1).
Supplementary Table S1. Photostationary states (PSSE→Z and PSSZ→E) and half-life of Z isomers of
respectively. n.d., not determinable.
TW construct PSSE→Z [%] PSSZ→E [%] […]

The target of data set [2] is T1, Cy5-labeled Taspase 1 loop (Homo sapiens, UniProt Q9H6P5).
T1 construct: Cy5-labeled NLS-bearing loop peptide (aa S181-D233); purchased GeneCust; host or cells: synthetic peptide
T1 sequence (Q9H6P5 181-233): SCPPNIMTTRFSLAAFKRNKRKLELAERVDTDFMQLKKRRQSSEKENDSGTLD
The data set is described as follows: Fluorescence titration of Cy5-labeled Taspase 1 loop. The conditions noted are these: for Kd: 1:1 binding model, n = 3, read-out: KD TW (fluorescence titration, loop). The data set is classed as binding. As to the method: Fluorescence titration was conducted with a Taspase 1 loop with an N-terminal […] synthesized by GeneCust (Sequence: Cy5-[…]; NLS in bold) as described.[9,10] The fluorescence anisotropy assay was modified based on previously established protocols.[51] Measurements were conducted using an FP-8300 JASCO fluorescence spectrometer (JASCO GmbH). […] Binding curves of the average data were fitted with GraphPad Prism 10.4 (GraphPad) using the quadratic binding equation for one-site specific binding model: [drawing 4] with r = anisotropy, r0 = anisotropy without protein, rmax = maximum anisotropy, F = fluorescent probe (Cy5-labeled peptide) concentration, x = titrant concentration, KD = dissociation constant. All fitting curves have R^2-values between 0.88 and 0.98.
Since Importin binding critically depends on the basic NLS clusters within the Taspase 1 loop, pull-down assays typically provide a reliable readout for tweezer interaction with the relevant lysine and arginine residues. Alternatively, loop binding can be evaluated through ligand titration experiments using a fluorescently labeled Taspase 1 loop (Fig. 5).[10] […] As a result, potential effects related to the orientation of the flexible loop within the context of the globular protein are not captured. Of note, the slight increase in signal at the highest compound concentration likely reflects non-specific effects such as weak autofluorescence, inner filter artifacts, or molecular crowding, highlighting limitations of the assay at this range. Despite these effects, the data points were retained to provide a complete representation of the assay response.
Fig. 5 TWAAP ligands directly address the Taspase 1 loop. Fluorescence titrations were performed using a Cy5-labeled Taspase 1 loop and switchable tweezers. […] Fluorescence intensity in solvent-treated samples was set to 100%, with ligand-treated samples normalized to this value. […] As a control, all ligands were added to Cy5 (without peptide) at their highest concentration, resulting in neglectable changes in fluorescence. Data represent the mean ± SD of three independent experiments. Composed with https://Biorender.com.

Molecules are shown by their SMILES. Read-outs that look alike come from different tables or passages of the source.

Turning to `Cc1nn(-c2ccc(-n3cc(CCOP(=O)(O)Oc4c5c(c(OP(=O)(O)O)c6c4C4CC6c6cc7c(cc64)C4CC7c6ccccc64)C4CC5c5cc6c(cc54)C4CC6c5ccccc54)nn3)cc2)c(C)c1N=Nc1ccc(-n2cc(CCOP(=O)(O)Oc3c4c(c(OP(=O)(O)O)c5c3C3CC5c5cc6c(cc53)C3CC6c5ccccc53)C3CC4c4cc5c(cc43)C3CC5c4ccccc43)nn2)cc1` [TWAAP0], in data set [1], the “PSS E→Z, photostationary state” value is 87% and the “PSS Z→E, photostationary state” value was 89%. The Kd in data set [2] (E isomer) was determined as 200 nM. For the same compound, the Kd in data set [2] (Z isomer) stood at 300 nM.

In the case of `Cc1nn(Cc2cn(CCOP(=O)(O)Oc3c4c(c(OP(=O)(O)O)c5c3C3CC5c5cc6c(cc53)C3CC6c5ccccc53)C3CC4c4cc5c(cc43)C3CC5c4ccccc43)nn2)c(C)c1N=Nc1ccc(-c2cn(CCOP(=O)(O)Oc3c4c(c(OP(=O)(O)O)c5c3C3CC5c5cc6c(cc53)C3CC6c5ccccc53)C3CC4c4cc5c(cc43)C3CC5c4ccccc43)nn2)cc1` [TWAAP2], in data set [1], the “PSS E→Z, photostationary state” value worked out at 94%. The “PSS Z→E, photostationary state” value in data set [1] is recorded as 77%. For the same compound, the Kd in data set [2] (E isomer) and in data set [2] (Z isomer) was 300 nM throughout.

Consider `Cc1nn(-c2ccc(-c3cn(CCOP(=O)(O)Oc4c5c(c(OP(=O)(O)O)c6c4C4CC6c6cc7c(cc64)C4CC7c6ccccc64)C4CC5c5cc6c(cc54)C4CC6c5ccccc54)nn3)cc2)c(C)c1N=Nc1ccc(-c2ccc(-c3cn(CCOP(=O)(O)Oc4c5c(c(OP(=O)(O)O)c6c4C4CC6c6cc7c(cc64)C4CC7c6ccccc64)C4CC5c5cc6c(cc54)C4CC6c5ccccc54)nn3)cc2)cc1` [TWAAP3], for which the “PSS E→Z, photostationary state” value in data set [1] turned out to be 84%. Further, the “PSS Z→E, photostationary state” value in data set [1] was found to be 92%. The Kd was 400 nM in data set [2] (E isomer) and 600 nM in data set [2] (Z isomer).

For the compound `Cc1nn(-c2ccc(C#Cc3ccc(-c4cn(CCOP(=O)(O)Oc5c6c(c(OP(=O)(O)O)c7c5C5CC7c7cc8c(cc75)C5CC8c7ccccc75)C5CC6c6cc7c(cc65)C5CC7c6ccccc65)nn4)cc3)cc2)c(C)c1N=Nc1ccc(C#Cc2ccc(-c3cn(CCOP(=O)(O)Oc4c5c(c(OP(=O)(O)O)c6c4C4CC6c6cc7c(cc64)C4CC7c6ccccc64)C4CC5c5cc6c(cc54)C4CC6c5ccccc54)nn3)cc2)cc1` [TWAAP4], in data set [1], the “PSS E→Z, photostationary state” value was 67% and the “PSS Z→E, photostationary state” value is 97%. The Kd in data set [2] (E isomer) stood at 800 nM. Further, in data set [2] (Z isomer), the “Loop binding, in words” value is “only a weak loop binder” and the Kd was 4900 nM.

For the compound `O=P(O)(O)Oc1c2c(c(OP(=O)(O)OCCn3cc(-c4ccc(N=Nc5ccc(-c6cn(CCOP(=O)(O)Oc7c8c(c(OP(=O)(O)O)c9c7C7CC9c9cc%10c(cc97)C7CC%10c9ccccc97)C7CC8c8cc9c(cc87)C7CC9c8ccccc87)nn6)cc5)cc4)nn3)c3c1C1CC3c3cc4c(cc31)C1CC4c3ccccc31)C1CC2c2cc3c(cc21)C1CC3c2ccccc21` [TWAB1], in data set [1], the “PSS E→Z, photostationary state” value came out at 63% and the “PSS Z→E, photostationary state” value amounted to 61%.
